According to patent US10370343B2, “[6,6] Fused bicyclic HDAC8 inhibitors” (FORMA Therapeutics, Inc., priority 2015, dated 2019):

These molecules were tested against T1, Recombinant N-terminal GST tag full-length human HDAC8 (Homo sapiens, UniProt Q9BY41) (assay: HDAC8 probe binding assay, time resolved fluorescence (TRF) format). Settings: compounds grouped by IC50 range (Table 2).
T1 construct: Recombinant N-terminal GST tag full-length human HDAC8; purchased SignalChem H90-30G-1000; host or cells: baculovirus in Sf9 insect cells
T1 sequence (Q9BY41 1-377): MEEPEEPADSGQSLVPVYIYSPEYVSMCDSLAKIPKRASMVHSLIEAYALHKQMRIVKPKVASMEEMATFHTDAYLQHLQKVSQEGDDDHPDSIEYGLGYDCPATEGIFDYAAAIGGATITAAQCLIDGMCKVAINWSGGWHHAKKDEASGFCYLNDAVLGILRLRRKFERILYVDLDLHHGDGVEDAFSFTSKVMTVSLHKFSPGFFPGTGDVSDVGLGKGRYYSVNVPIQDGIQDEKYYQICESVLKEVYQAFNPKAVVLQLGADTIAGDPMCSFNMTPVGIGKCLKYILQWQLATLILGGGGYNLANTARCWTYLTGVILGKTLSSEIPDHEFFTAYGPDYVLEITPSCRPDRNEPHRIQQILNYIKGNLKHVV
Experimental: The HDAC8 probe binding assay was performed using a time resolved fluorescence (TRF) assay format. Recombinant N-terminal GST tag full-length human HDAC8 was expressed and purified from baculovirus in Sf9 insect cells (SignalChem, #[…]-1000). […] Plates were incubated for 16 hours at room temperature before time resolved fluorescence was read on the Envision (Excitation at 340 nm, and Emission at 485 nm and 535 nm, Perkin Elmer). Data from HDAC8 Assays were reported as percent inhibition (inh) compared with control wells based on the following equation: % inh=1-((FLU-AveLow)/(AveHigh-AveLow)) where FLU=measured time resolved fluorescence. AveLow=average time resolved fluorescence of no enzyme control (n=32). AveHigh=average time resolved fluorescence of DMSO control (n=32). IC50 values were determined by curve fitting of the standard 4 parameter logistic fitting algorithm included in the Activity Base software package: IDBS XE Designer Model205. Data is fitted using the Levenburg Marquardt algorithm. Ranges of IC50 values for compounds of the invention are disclosed in Table 2: Table 2. provides the compounds arranged according to […] determined in a time resolved fluorescence (TRF) assay. The compounds are separated into four groups: […]

Compound | IC50
Cn1cc2ccc(CN3C(=O)COc4ccc(C(=O)NO)cc43)cc2n1 [Compound I-240, N-hydroxy-4-((2-methyl-2H-indazol-6-yl)methyl)-3-oxo-3,4-dihydro-2H-benzo[b][1,4]oxazine-6-carboxamide] | ≤ 0.025 µM
CC1(C)Oc2ccc(C(=O)NO)cc2N(Cc2ccccc2OC(F)(F)F)C1=O [Compound I-302, N-hydroxy-2,2-dimethyl-3-oxo-4-(2-(trifluoromethoxy)benzyl)-3,4-dihydro-2H-benzo[b][1,4]oxazine-6-carboxamide] | 0.025 to 0.1 µM
N#Cc1ccc(CN2C(=O)COc3ccc(C(=O)NO)cc32)c(Cl)c1 [Compound I-372, 4-(2-chloro-4-cyanobenzyl)-N-hydroxy-3-oxo-3,4-dihydro-2H-benzo[b][1,4]oxazine-6-carboxamide] | ≤ 0.025 µM
CC1(C)Oc2ccc(C(=O)NO)cc2N(Cc2cccc(C(F)(F)F)c2)C1=O [Compound I-300, N-hydroxy-2,2-dimethyl-3-oxo-4-(3-(trifluoromethyl)benzyl)-3,4-dihydro-2H-benzo[b][1,4]oxazine-6-carboxamide] | 0.025 to 0.1 µM
O=C(NO)c1ccc2c(c1)N(Cc1cn3cc(F)ccc3n1)C(=O)CO2 [Compound I-368, 4-((6-fluoroimidazo[1,2-a]pyridin-2-yl)methyl)-N-hydroxy-3-oxo-3,4-dihydro-2H-benzo[b][1,4]oxazine-6-carboxamide] | 0.025 to 0.1 µM
CC1(C)Oc2ccc(C(=O)NO)cc2N(Cc2nc(-c3ccccc3)sc2Cl)C1=O [Compound I-308, 4-((5-chloro-2-phenylthiazol-4-yl)methyl)-N-hydroxy-2,2-dimethyl-3-oxo-3,4-dihydro-2H-benzo[b][1,4]oxazine-6-carboxamide] | 0.025 to 0.1 µM
O=C(NO)c1ccc2c(c1)N(Cc1ccc(-n3ccnc3)cc1)C(=O)CO2 [Compound I-187, 4-(4-(1H-imidazol-1-yl)benzyl)-N-hydroxy-3-oxo-3,4-dihydro-2H-benzo[b][1,4]oxazine-6-carboxamide] | ≤ 0.025 µM
CN1C(=O)CCc2cc(CN3C(=O)COc4ccc(C(=O)NO)cc43)ccc21 [Compound I-183, N-hydroxy-4-((1-methyl-2-oxo-1,2,3,4-tetrahydroquinolin-6-yl)methyl)-3-oxo-3,4-dihydro-2H-benzo[b][1,4]oxazine-6-carboxamide] | ≤ 0.025 µM
O=C(NO)c1ccc2c(c1)N(Cc1cc3ccccc3cn1)C(=O)CO2 [Compound I-334, N-hydroxy-4-(isoquinolin-3-ylmethyl)-3-oxo-3,4-dihydro-2H-benzo[b][1,4]oxazine-6-carboxamide] | ≤ 0.025 µM
O=C(NO)c1ccc2c(c1)N(Cc1nc3ccc(Cl)cc3o1)C(=O)CO2 [Compound I-287, 4-((6-chlorobenzo[d]oxazol-2-yl)methyl)-N-hydroxy-3-oxo-3,4-dihydro-2H-benzo[b][1,4]oxazine-6-carboxamide] | ≤ 0.025 µM
O=C(NO)c1ccc2c(c1)N(Cc1c[nH]c3ccccc13)C(=O)CO2 [Compound I-200, 4-((1H-indol-3-yl)methyl)-N-hydroxy-3-oxo-3,4-dihydro-2H-benzo[b][1,4]oxazine-6-carboxamide] | 0.025 to 0.1 µM
N#Cc1ccc(CN2C(=O)COc3ccc(C(=O)NO)cc32)cc1 [Compound I-237, 4-(4-cyanobenzyl)-N-hydroxy-3-oxo-3,4-dihydro-2H-benzo[b][1,4]oxazine-6-carboxamide] | ≤ 0.025 µM
O=C(NO)c1ccc2c(c1)N(Cc1ccc(C(=O)N3CCOCC3)cc1)C(=O)CO2 [Compound I-190, N-hydroxy-4-(4-(morpholine-4-carbonyl)benzyl)-3-oxo-3,4-dihydro-2H-benzo[b][1,4]oxazine-6-carboxamide] | 0.025 to 0.1 µM
O=C(NO)c1ccc2c(c1)N(Cc1cnc3[nH]ccc3c1)C(=O)CO2 [Compound I-324, 4-((1H-pyrrolo[2,3-b]pyridin-5-yl)methyl)-N-hydroxy-3-oxo-3,4-dihydro-2H-benzo[b][1,4]oxazine-6-carboxamide] | 0.025 to 0.1 µM
CC1(C)Oc2ccc(C(=O)NO)cc2N(Cc2nc3ccc(F)cc3o2)C1=O [Compound I-291, 4-((6-fluorobenzo[d]oxazol-2-yl)methyl)-N-hydroxy-2,2-dimethyl-3-oxo-3,4-dihydro-2H-benzo[b][1,4]oxazine-6-carboxamide] | ≤ 0.025 µM
O=C(NO)c1ccc2c(c1)N(Cc1coc(-c3ccccc3)n1)C(=O)CO2 [Compound I-179, N-hydroxy-3-oxo-4-((2-phenyloxazol-4-yl)methyl)-3,4-dihydro-2H-benzo[b][1,4]oxazine-6-carboxamide] | ≤ 0.025 µM
O=C(NO)c1ccc2c(c1)N(Cc1cc(-c3ccccc3)[nH]n1)C(=O)CO2 [Compound I-204, N-hydroxy-3-oxo-4-[(5-phenyl-1H-pyrazol-3-yl)methyl]-3,4-dihydro-2H-1,4-benzoxazine-6-carboxamide] | ≤ 0.025 µM
COc1ccc(Cl)c(CN2C(=O)COc3ccc(C(=O)NO)cc32)c1 [Compound I-347, 4-(2-chloro-5-methoxybenzyl)-N-hydroxy-3-oxo-3,4-dihydro-2H-benzo[b][1,4]oxazine-6-carboxamide] | ≤ 0.025 µM
O=C(NO)c1ccc2c(c1)N(Cc1ccc3ncccc3c1)C(=O)CO2 [Compound I-231, N-hydroxy-3-oxo-4-(quinolin-6-ylmethyl)-3,4-dihydro-2H-benzo[b][1,4]oxazine-6-carboxamide] | ≤ 0.025 µM
N#Cc1ccc(Cl)c(CN2C(=O)COc3ccc(C(=O)NO)cc32)c1 [Compound I-373, 4-(2-chloro-5-cyanobenzyl)-N-hydroxy-3-oxo-3,4-dihydro-2H-benzo[b][1,4]oxazine-6-carboxamide] | ≤ 0.025 µM
O=C(NO)c1ccc2c(c1)N(Cc1cccc(C(F)(F)F)c1Cl)C(=O)CO2 [Compound I-354, 4-(2-chloro-3-(trifluoromethyl)benzyl)-N-hydroxy-3-oxo-3,4-dihydro-2H-benzo[b][1,4]oxazine-6-carboxamide] | 0.025 to 0.1 µM
O=C(NO)c1ccc2c(c1)N(Cc1cc(Cl)cc(Cl)c1)C(=O)CO2 [Compound I-355, 4-(3,5-dichlorobenzyl)-N-hydroxy-3-oxo-3,4-dihydro-2H-benzo[b][1,4]oxazine-6-carboxamide] | ≤ 0.025 µM
CC1(C)Oc2ccc(C(=O)NO)cc2N(Cc2ccc(-c3ccccc3)cc2)C1=O [Compound I-306, 4-([1,1′-biphenyl]-4-ylmethyl)-N-hydroxy-2,2-dimethyl-3-oxo-3,4-dihydro-2H-benzo[b][1,4]oxazine-6-carboxamide] | 0.025 to 0.1 µM
CC1(C)Oc2ccc(C(=O)NO)cc2N(Cc2ccc(OC(F)(F)F)cc2F)C1=O [Compound I-322, 4-(2-fluoro-4-(trifluoromethoxy)benzyl)-N-hydroxy-2,2-dimethyl-3-oxo-3,4-dihydro-2H-benzo[b][1,4]oxazine-6-carboxamide] | 0.025 to 0.1 µM
COc1ccc(CN2CC(C(=O)N3CCOCC3)Oc3ccc(C(=O)NO)cc32)cc1 (centres unmarked) [Compound I-171, N-hydroxy-4-(4-methoxybenzyl)-2-(morpholine-4-carbonyl)-3,4-dihydro-2H-benzo[b][1,4]oxazine-6-carboxamide] | 0.025 to 0.1 µM
O=C(NO)c1ccc2c(c1)N(Cc1ccc(C(F)(F)F)cc1Cl)C(=O)CO2 [Compound I-356, 4-(2-chloro-4-(trifluoromethyl)benzyl)-N-hydroxy-3-oxo-3,4-dihydro-2H-benzo[b][1,4]oxazine-6-carboxamide] | ≤ 0.025 µM
